# Measurements reported in ChEMBL document CHEMBL4364299, “Discovery of a Potent Kelch-Like ECH-Associated Protein 1-Nuclear Factor Erythroid 2-Related Factor 2 (Keap1-Nrf2) Protein-Protein Interaction Inhibitor with Natural Proline Structure as a Cytoprotective Agent against Acetaminophen-Induced Hepatotoxicity” (J Med Chem, 2019).
# Calls of active or inactive are those of the source. The rule behind the calls is not given here.
# How the values were obtained:
# [1] = molecular target: T1, Nuclear factor erythroid 2-related factor 2 (Homo sapiens) (UniProt Q16236); experiment: Activation of Nrf2 in human L02 cells assessed as increase in HO-1 mRNA expression measured after 12 hrs by trizol reagent based qRT-PCR analysis; format: cell-based
# T1 sequence (whole entry): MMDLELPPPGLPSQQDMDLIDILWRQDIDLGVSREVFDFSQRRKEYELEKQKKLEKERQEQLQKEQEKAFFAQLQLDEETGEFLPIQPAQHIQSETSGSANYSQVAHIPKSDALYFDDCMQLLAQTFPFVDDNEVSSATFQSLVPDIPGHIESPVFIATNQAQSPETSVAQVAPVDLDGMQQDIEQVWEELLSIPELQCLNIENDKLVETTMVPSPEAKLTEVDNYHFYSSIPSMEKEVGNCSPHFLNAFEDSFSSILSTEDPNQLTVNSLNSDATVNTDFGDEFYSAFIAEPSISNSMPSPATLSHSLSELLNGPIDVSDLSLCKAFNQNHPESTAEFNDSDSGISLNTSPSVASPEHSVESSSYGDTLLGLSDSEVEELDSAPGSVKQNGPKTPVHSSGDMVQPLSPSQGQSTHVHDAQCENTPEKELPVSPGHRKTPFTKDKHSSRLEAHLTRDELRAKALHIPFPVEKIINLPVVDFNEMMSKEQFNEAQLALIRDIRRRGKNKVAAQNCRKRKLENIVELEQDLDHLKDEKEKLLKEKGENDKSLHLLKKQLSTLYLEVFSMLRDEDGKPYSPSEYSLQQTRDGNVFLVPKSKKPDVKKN
# [2] = molecular target: T1, Nuclear factor erythroid 2-related factor 2 (Homo sapiens); experiment: Activation of Nrf2 (unknown origin) stably transfected in human HepG2-ARE-C8 cells assessed as increase in ARE-driven luciferase activity by luciferase reporter gene assay; format: cell-based
# [3] = molecular target: T1, Nuclear factor erythroid 2-related factor 2 (Homo sapiens); experiment: Activation of Nrf2 in human L02 cells assessed as increase in GCLM mRNA expression measured after 12 hrs by trizol reagent based qRT-PCR analysis; format: cell-based
# [4] = molecular target: T1, Nuclear factor erythroid 2-related factor 2 (Homo sapiens); experiment: Activation of Nrf2 in human L02 cells assessed as increase in NEFL2L mRNA expression at 10 uM measured after 8 to 24 hrs by trizol reagent based qRT-PCR analysis; format: cell-based
# [5] = molecular target: T1, Nuclear factor erythroid 2-related factor 2 (Homo sapiens); experiment: Activation of Nrf2 in human L02 cells assessed as increase in HO-1 mRNA expression at 10 uM measured after 8 to 24 hrs by trizol reagent based qRT-PCR analysis; format: cell-based
# [6] = molecular target: T1, Nuclear factor erythroid 2-related factor 2 (Homo sapiens); experiment: Activation of Nrf2 in human L02 cells assessed as increase in NEFL2L expression measured after 12 hrs by Western blot analysis; format: cell-based
# [7] = molecular target: T1, Nuclear factor erythroid 2-related factor 2 (Homo sapiens); experiment: Activation of Nrf2 in human L02 cells assessed as increase in HO-1 expression measured after 12 hrs by Western blot analysis; format: cell-based
# [8] = molecular target: T1, Nuclear factor erythroid 2-related factor 2 (Homo sapiens); experiment: Activation of Nrf2 in human L02 cells assessed as increase in NQO-1 expression at 10 uM measured after 4 to 72 hrs hrs by Western blot analysis; format: cell-based
# [9] = system: L02; experiment: Upregulation of NEFL2L mRNA expression in human L02 cells harboring Nrf2 siRNA at 10 uM measured after 10 hrs by trizol reagent based qRT-PCR analysis; format: functional, cell-based
# [10] = system: L02; experiment: Upregulation of HO-1 mRNA expression in human L02 cells harboring Nrf2 siRNA at 10 uM measured after 10 hrs by trizol reagent based qRT-PCR analysis; format: functional, cell-based
# [11] = system: L02; experiment: Upregulation of GCLM expression in human L02 cells harboring Nrf2 siRNA at 10 uM measured after 10 hrs by Western blot analysis; format: functional, cell-based
# [12] = molecular target: T1, Nuclear factor erythroid 2-related factor 2 (Homo sapiens); experiment: Activation of Nrf2 in human L02 cells harboring control siRNA assessed as increase in NQO-1 expression at 10 uM measured after 10 hrs by Western blot analysis; format: cell-based
# [13] = molecular target: T1, Nuclear factor erythroid 2-related factor 2 (Homo sapiens); experiment: Activation of Nrf2 in human L02 cells harboring control siRNA assessed as increase in GCLM expression at 10 uM measured after 10 hrs by Western blot analysis; format: cell-based
# [14] = system: L02; experiment: Cytoprotective activity against APAP-induced hepatotoxicity in human L02 cells assessed as increase in cell viability at 1 to 20 uM preincubated for 12 hrs followed by APAP addition and measured after 24 hrs by MTT assay; format: functional, cell-based
# [15] = system: L02; experiment: Cytoprotective activity against APAP-induced oxidative stress in human L02 cells assessed as decrease in MDA activity at 5 to 10 uM preincubated for 12 hrs followed by APAP stimulation and measured after 24 hrs; format: functional, cell-based
# [16] = system: L02; experiment: Cytoprotective activity against APAP-induced oxidative stress in human L02 cells assessed as increase in GSH/GSSG ratio at 5 to 10 uM preincubated for 12 hrs followed by APAP stimulation and measured after 24 hrs; format: functional, cell-based
# [17] = system: Mus musculus; experiment: (§1) Protection against APAP-induced hepatotoxicity in C57BL/6 mouse assessed as decrease in Nrf2 expression in liver at 10 to 40 mg/kg, ip treated 2 hrs prior to 22 hrs starvation followed by APAP challenge and measured after 6 hrs by Dako/Mayer's hematoxylin staining-based immunohistochemical analysis; format: functional, organism-based
# [18] = system: Mus musculus; experiment: Protection against APAP-induced hepatotoxicity in C57BL/6 mouse assessed as decrease in GCLM expression in liver at 10 to 40 mg/kg, ip treated 2 hrs prior to 22 hrs starvation followed by APAP challenge and measured after 6 hrs by Dako/Mayer's hematoxylin staining-based immunohistochemical analysis; format: functional, organism-based
# [19] = system: Mus musculus; experiment: Protection against APAP-induced hepatotoxicity in C57BL/6 mouse assessed as decrease in MDA activity in liver at 10 to 40 mg/kg, ip treated 2 hrs prior to 22 hrs starvation followed by APAP challenge and measured after 6 hrs; format: functional, organism-based
# [20] = system: Mus musculus; experiment: Protection against APAP-induced hepatotoxicity in C57BL/6 mouse assessed as decrease in liver lymphocytes infiltration at 10 to 40 mg/kg, ip treated 2 hrs prior to 22 hrs starvation followed by APAP challenge and measured after 6 hrs by H and E staining-based light microscopic analysis; format: functional, organism-based
# [21] = system: Mus musculus; experiment: as §1, with “alpha-SMA” for “Nrf2”; format: functional, organism-based
# [22] = system: Mus musculus; experiment: Protection against APAP-induced hepatotoxicity in C57BL/6 mouse assessed as decrease in disease score at 10 to 40 mg/kg, ip treated 2 hrs prior to 22 hrs starvation followed by APAP challenge and measured after 6 hrs by H and E staining-based light microscopic analysis; format: functional, organism-based
# [23] = system: Mus musculus; experiment: Protection against APAP-induced hepatotoxicity in C57BL/6 mouse assessed as decrease in ALP level at 10 mg/kg, ip treated 2 hrs prior to 22 hrs starvation followed by APAP challenge and measured after 6 hrs; format: functional, organism-based
# [24] = system: Mus musculus; experiment: Protection against APAP-induced hepatotoxicity in C57BL/6 mouse assessed as decrease in IL1beta production at 10 mg/kg, ip treated 2 hrs prior to 22 hrs starvation followed by APAP challenge and measured after 6 hrs; format: functional, organism-based
# [25] = system: Mus musculus; experiment: Protection against APAP-induced hepatotoxicity in C57BL/6 mouse assessed as decrease in TNFalpha production at 10 mg/kg, ip treated 2 hrs prior to 22 hrs starvation followed by APAP challenge and measured after 6 hrs; format: functional, organism-based
# [26] = system: L02; conditions: Homo sapiens, 5 to 10 uM
# Description: Cytoprotective activity against APAP-induced hepatotoxicity in human L02 cells assessed as inhibition of IL6 production at 5 to 10 uM preincubated for 12 hrs followed by APAP stimulation and measured after 24 hrs by ELISA
# [27] = system: L02; conditions: Homo sapiens, 5 to 10 uM; remark: listed apart in the source
# Description: Cytoprotective activity against APAP-induced hepatotoxicity in human L02 cells assessed as inhibition of TNFalpha production at 5 to 10 uM preincubated for 12 hrs followed by APAP stimulation and measured after 24 hrs by ELISA
compound,measurement,setting,value
COc1ccc(S(=O)(=O)N(CC(=O)O)c2ccc(N3CCC[C@H]3C(=O)O)c3ccccc23)cc1,Activity,[1],Dose-dependent effect
same,Activity,[2],Dose-dependent effect
same,Activity,[3],Dose-dependent effect
same,Activity,[4],Active
same,Activity,[5],Active
same,Activity,[6],Dose-dependent effect
same,Activity,[7],Dose-dependent effect
same,Activity,[8],Active
same,Activity,[9],inactive
same,Activity,[10],inactive
same,Activity,[11],inactive
same,Activity,[12],Active
same,Activity,[13],Active
same,Activity,[14],Active
same,Activity,[15],Active
same,Activity,[16],Active
same,Activity,[17],Active
same,Activity,[18],Active
same,Activity,[19],Active
same,Activity,[20],Active
same,Activity,[21],Active
same,Activity,[22],Active
same,Activity,[23],Active
same,Activity,[24],Active
same,Activity,[25],Active
same,inhibition,[26],Active
same,inhibition,[27],Active
